Earlier results on one compound are cited in patent publication US20090209656A1, “DISINFECTION/SANITATION METHOD WHERE THE MATERIAL IS TREATED WITH A SOLUTION COMPRISING BENZYL ALCOHOL AND C2-3 ALCOHOL” (GE HEALTHCARE BIO-SCIENCES AB, priority 2006, published 2009).

As a reminder, the NOAEL is the highest dose or exposure tested at which no adverse effect was seen.

Molecules are shown by their SMILES. A value given as a limit tells only on which side of the number the result lay.

The conditions of data set [1]: acute toxicity.
For data set [2] the following is noted: long-term exposure.

For the compound `OCc1ccccc1` [benzyl alcohol], in data set [1], the LD50 is reported as 1610 mg/kg body weight. Besides, the no-observed-adverse-effect level (NOAEL) in data set [2] was more than 400 mg/kg body weight/day.
